Like-named read-outs stand apart in the source and are kept apart here. Numbered stars: 1 amine (or outer) side, 2 acyl side, 3 side chain; on linkers, the order of the positions; unused ones are H or OH. Square brackets hold non-standard residues; d marks the D form. Side chains are listed from the residue outwards. Peptide text beside a SMILES is read from it. * marks the point of attachment. γGlu = O=C(O)[C@H](CCC(=O)[*:2])N[*:1]; Palmitoyl = CCCCCCCCCCCCCCCC(=O)*; αMeF = C[C@](N)(Cc1ccccc1)C(=O)O; αMeK = C[C@](N)(CCCCN)C(=O)O; Lauroyl = CCCCCCCCCCCC(=O)*; αMeS = C[C@](N)(CO)C(=O)O; AEEA = NCCOCCOCC(=O)O; Aib = CC(C)(N)C(=O)O
Experiments:
Type in all cases: cell-based
[1] = biological target: T1, human glucose-dependent insulinotropic peptide receptor (GIPR) (Homo sapiens, UniProt P48546); experiment: cAMP assay, human GIPR cells
T1 construct: expressed in transfected cells
T1 sequence (P48546 22-466): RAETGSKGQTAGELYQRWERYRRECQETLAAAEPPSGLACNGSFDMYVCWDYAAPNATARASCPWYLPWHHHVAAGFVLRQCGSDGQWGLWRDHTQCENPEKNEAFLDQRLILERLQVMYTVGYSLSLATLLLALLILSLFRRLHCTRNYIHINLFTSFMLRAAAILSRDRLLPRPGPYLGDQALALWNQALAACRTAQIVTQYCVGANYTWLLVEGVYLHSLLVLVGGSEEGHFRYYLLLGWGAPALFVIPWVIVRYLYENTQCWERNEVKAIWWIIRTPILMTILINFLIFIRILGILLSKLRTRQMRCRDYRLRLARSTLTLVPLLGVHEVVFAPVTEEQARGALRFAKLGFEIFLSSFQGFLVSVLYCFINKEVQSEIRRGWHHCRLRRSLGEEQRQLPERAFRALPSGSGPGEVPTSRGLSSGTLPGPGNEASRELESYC
How it was run: (§1)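 Peptide-stimulated cAMP measured by two-step HTRF after a 30 min room-temperature incubation with receptor-expressing cells (hGLP-1R, hGIPR at 1×10^5 cells/ml; hGCGR at 2×10^5 cells/ml). Duplicate dilutions; EC50 from 4-parameter logistic fit of % Delta F.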

[2] = biological target: T2, human glucagon receptor (GCGR) (Homo sapiens, UniProt P47871); experiment: cAMP assay, human GCGR cells
T2 construct: expressed in transfected cells
T2 sequence (P47871 26-477): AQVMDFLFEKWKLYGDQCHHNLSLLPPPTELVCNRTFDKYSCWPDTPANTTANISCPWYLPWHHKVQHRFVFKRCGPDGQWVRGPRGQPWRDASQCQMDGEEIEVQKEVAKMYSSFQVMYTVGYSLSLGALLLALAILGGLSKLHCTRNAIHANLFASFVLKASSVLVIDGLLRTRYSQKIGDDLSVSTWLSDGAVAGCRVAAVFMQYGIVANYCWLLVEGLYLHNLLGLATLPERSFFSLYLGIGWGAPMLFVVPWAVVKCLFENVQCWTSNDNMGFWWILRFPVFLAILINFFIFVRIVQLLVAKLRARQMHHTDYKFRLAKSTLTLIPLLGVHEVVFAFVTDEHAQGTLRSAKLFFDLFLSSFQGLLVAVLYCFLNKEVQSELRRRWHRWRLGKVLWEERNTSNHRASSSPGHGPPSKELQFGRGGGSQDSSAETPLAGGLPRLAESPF
How it was run: as §1

GLP-1R (INS1e assay) = biological target: T3, GLP-1R (INS1e assay) (Rattus norvegicus, UniProt P32301); experiment: INS1e assay, cAMP activity at GLP-1R
T3 construct: endogenous in cells; host or cells: INS-1E cells
T3 sequence (P32301 22-463): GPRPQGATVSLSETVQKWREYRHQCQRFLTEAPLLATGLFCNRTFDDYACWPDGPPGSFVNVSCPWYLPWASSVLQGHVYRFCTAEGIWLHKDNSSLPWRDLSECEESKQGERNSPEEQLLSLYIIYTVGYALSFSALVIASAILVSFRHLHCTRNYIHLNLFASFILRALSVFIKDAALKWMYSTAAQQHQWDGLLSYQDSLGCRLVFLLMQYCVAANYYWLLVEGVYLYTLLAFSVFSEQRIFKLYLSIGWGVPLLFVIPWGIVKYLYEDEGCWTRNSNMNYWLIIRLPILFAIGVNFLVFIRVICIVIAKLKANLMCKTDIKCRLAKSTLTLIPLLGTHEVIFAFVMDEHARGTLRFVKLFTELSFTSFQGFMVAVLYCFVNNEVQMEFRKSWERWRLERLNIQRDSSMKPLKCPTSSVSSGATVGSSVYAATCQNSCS
How it was run: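 cAMP was quantified by two-step HTRF, using anti-cAMP cryptate donor and cAMP-d2 acceptor, each diluted 1/20 in conjugate and lysis buffer. EC50 values of the synthetic peptides were derived from the cAMP readout.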

[3] = cAMP assay, first determination (n1), read-out: Primary assay EC50 GIP-R (n1)
[4] = cAMP assay, second determination (n2), read-out: Primary assay EC50 GIP-R (n2)
[5] = cAMP assay, first determination (n1), read-out: Primary assay EC50 Gluc-R (n1)
[6] = cAMP assay, second determination (n2), read-out: Primary assay EC50 Gluc-R (n2)
[7] = mono-lipidated peptides, mean of n1 and n2, read-out: INS1e assay EC50 Mean pM GLP-1R
[8] = mono-lipidated peptides, replicate n1, read-out: INS1e assay EC50 GLP-1R n1
[9] = mono-lipidated peptides, replicate n2, read-out: INS1e assay EC50 GLP-1R n2

Row | EC50 [1, 3] [nM] | EC50 [1, 4] [nM] | EC50 [2, 5] [nM] | EC50 [2, 6] [nM] | EC50 (GLP-1R (INS1e assay); [7]) [pM] | EC50 (GLP-1R (INS1e assay); [8]) [pM] | EC50 (GLP-1R (INS1e assay); [9]) [pM] | EC50 ([1]; tris-lipidated peptides, first replicate, read-out: Primary assay EC50 GIP-R (n1)) [nM] | EC50 ([2]; tris-lipidated peptides, second replicate, read-out: Primary assay EC50 Gluc-R (n2)) [nM] | EC50 (GLP-1R (INS1e assay); tris-lipidated peptides, mean of n1 and n2, read-out: INS1e assay EC50 Mean pM GLP-1R) [pM] | EC50 (GLP-1R (INS1e assay); tris-lipidated peptides, replicate n1, read-out: INS1e assay EC50 GLP-1R n1) [pM] | EC50 (GLP-1R (INS1e assay); tris-lipidated peptides, replicate n2, read-out: INS1e assay EC50 GLP-1R n2) [pM] | SMILES
1 | ≥ 27 | ≥ 27 | ≥ 27 | ≥ 27 | 560 | 455 | 665 | – | – | – | – | – | CCCCCCCCCCCCCCCC(=O)N[C@@H](CCC(=O)NCCCC[C@H](NC(=O)[C@H](CCC(=O)O)NC(=O)[C@H](CC(C)C)NC(=O)[C@](C)(Cc1ccccc1)NC(=O)[C@H](CO)NC(=O)[C@](C)(CO)NC(=O)[C@@H](NC(=O)[C@H](CC(=O)O)NC(=O)[C@H](CO)NC(=O)[C@@H](NC(=O)[C@](C)(Cc1ccccc1)NC(=O)[C@H](CO)NC(=O)CNC(=O)[C@H](CCC(=O)O)NC(=O)C(C)(C)NC(=O)[C@@H](N)Cc1c[nH]cn1)[C@@H](C)O)C(C)C)C(=O)N[C@@H](CCC(=O)O)C(=O)N[C@@H](C)C(=O)N[C@@H](C)C(=O)N[C@@](C)(CCCCN)C(=O)N[C@@H](CCC(=O)O)C(=O)N[C@@](C)(Cc1ccccc1)C(=O)N[C@H](C(=O)N[C@@H](C)C(=O)N[C@@](C)(Cc1ccccc1)C(=O)N[C@H](C(=O)N[C@H](C(=O)N[C@@](C)(CCCCN)C(=O)NCC(=O)NCC(N)=O)C(C)C)C(C)C)[C@@H](C)CC)C(=O)O [compound 84] (H-H[Aib]EGS[αMeF]TSDV[αMeS]S[αMeF]LEK([γGlu-Palmitoyl])EAA[αMeK]E[αMeF]IA[αMeF]VV[αMeK]GG-NH2)
2 | – | – | – | – | – | – | – | 20 | 20 | 6530 | 9370 | 3690 | CCCCCCCCCCCC(=O)N[C@@H](CCC(=O)NCCOCCOCC(=O)NCCOCCOCC(=O)NCCCC[C@H](NC(=O)CNC(=O)[C@H](CCC(=O)O)NC(=O)[C@H](CC(C)C)NC(=O)[C@H](CCCCNC(=O)COCCOCCNC(=O)COCCOCCNC(=O)CC[C@H](NC(=O)CCCCCCCCCCC)C(=O)O)NC(=O)[C@H](CO)NC(=O)[C@](C)(CO)NC(=O)[C@@H](NC(=O)[C@H](CC(=O)O)NC(=O)[C@H](CO)NC(=O)[C@@H](NC(=O)[C@](C)(Cc1ccccc1)NC(=O)[C@H](CO)NC(=O)CNC(=O)[C@H](CCC(=O)O)NC(=O)C(C)(C)NC(=O)[C@@H](N)Cc1c[nH]cn1)[C@@H](C)O)C(C)C)C(=O)N[C@@H](C)C(=O)N[C@@H](C)C(=O)N[C@@](C)(CCCCN)C(=O)N[C@@H](CCC(=O)O)C(=O)N[C@@H](Cc1ccccc1)C(=O)N[C@H](C(=O)N[C@@H](C)C(=O)N[C@@H](Cc1ccccc1)C(=O)N[C@@H](CCCCNC(=O)COCCOCCNC(=O)COCCOCCNC(=O)CC[C@H](NC(=O)CCCCCCCCCCC)C(=O)O)C(=O)N[C@H](C(=O)N[C@@H](CCC(=O)O)C(=O)NCC(=O)NCC(N)=O)C(C)C)[C@@H](C)CC)C(=O)O [compound 480] (H-H[Aib]EGS[αMeF]TSDV[αMeS]SK([AEEA-AEEA-γGlu-Lauroyl])LEGK([AEEA-AEEA-γGlu-Lauroyl])AA[αMeK]EFIAFK([AEEA-AEEA-γGlu-Lauroyl])VEGG-NH2)
3 | ≥ 28 | ≥ 28 | ≥ 28 | ≥ 28 | 51 | 43.4 | 58.6 | – | – | – | – | – | CCCCCCCCCCCCCCCC(=O)N[C@@H](CCC(=O)NCCCC[C@H](NC(=O)[C@H](CC(=O)O)NC(=O)[C@H](CO)NC(=O)[C@@H](NC(=O)[C@](C)(Cc1ccccc1)NC(=O)[C@H](CO)NC(=O)CNC(=O)[C@H](CCC(=O)O)NC(=O)C(C)(C)NC(=O)[C@@H](N)Cc1c[nH]cn1)[C@@H](C)O)C(=O)N[C@@](C)(CO)C(=O)N[C@@H](CO)C(=O)N[C@@](C)(Cc1ccccc1)C(=O)N[C@@H](CC(C)C)C(=O)N[C@@H](CCC(=O)O)C(=O)NCC(=O)N[C@@H](CCC(=O)O)C(=O)N[C@@H](C)C(=O)N[C@@H](C)C(=O)N[C@@](C)(CCCCN)C(=O)N[C@@H](CCC(=O)O)C(=O)N[C@@](C)(Cc1ccccc1)C(=O)N[C@H](C(=O)N[C@@H](C)C(=O)N[C@@](C)(Cc1ccccc1)C(=O)N[C@H](C(=O)N[C@H](C(=O)N[C@@](C)(CCCCN)C(=O)NCC(=O)NCC(N)=O)C(C)C)C(C)C)[C@@H](C)CC)C(=O)O [compound 90] (H-H[Aib]EGS[αMeF]TSDK([γGlu-Palmitoyl])[αMeS]S[αMeF]LEGEAA[αMeK]E[αMeF]IA[αMeF]VV[αMeK]GG-NH2)
